Experimental findings from US20240376097A1, “BCL-2 Inhibitor” (BeiGene Ltd., priority 2020, published 2024) are described below.

SMILES strings stand for the structures. pIC50: −log10 of the molar value. Like-named read-outs stand apart in the source and are kept apart here.

The target in experiment [1] is recombinant human Bcl-2 D103Y protein (Homo sapiens (Human), UniProt P10415, D103Y). Kind of experiment: Bcl-2-D103Y Biochemical Assay (TR-FRET). It is filed as binding. The note with it: for pIC50: TR-FRET, FITC labeled Bak peptide; for Ratio of Bcl-2 D103Y/Bcl-2 WT: ratio of IC50. The gist of the method:
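Compounds titrated against the Bcl-2 D103Y–ligand interaction; inhibition derived from the TR-FRET emission ratio 490 nm/520 nm after 337 nm excitation. Four-parameter logistic fitting gave IC50.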
Background: TR-FRET usually uses a lanthanide donor and a delayed reading to cut background.

Experiment [2] concerns recombinant human Bcl-2-G101V protein. Kind of experiment: Bcl-2-G101V TR-FRET Assay. It is filed as binding. The settings on record: ratio of biochemical IC50 Bcl-2 G101V / Bcl-2 WT. The gist of the method: (§1)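 Compounds were titrated at increasing concentrations against the Bcl-2-G101V–ligand interaction. TR-FRET signals were then read (ex 337 nm; em 490/520 nm). Percent inhibition was derived from the 490-to-520 nm ratio, and IC50 from a four-parameter logistic equation.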

Experiment [3] addresses recombinant human Bcl-2-G101V protein (Homo sapiens (Human), UniProt P10415, G101V). Kind of experiment: Bcl-2-G101V TR-FRET Assay. The settings on record: Bcl-2 G101V mutant, TR-FRET; read-out: Biochemical assay (IC50, nM) Bcl-2 G101V. It is filed as binding. In short, it runs like this:
as §1

Experiment [4] has as its system BCL-2 G101V knock-in cell line H96 (derive from RS4;11). Kind of experiment: Bcl 2-G101V Knock-In RS4;11 Cell Proliferation Assay. It is filed as cell-based. The note with it: Homo sapiens, RS4;11 Bcl-2 G101V knock-in clone H96, 48 hrs, CellTiter-GLO, read-out: Cellular proliferation assay (IC50, nM) RS4. In short, it runs like this: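 CellTiter-Glo luminescence after 48 h, 37 °C compound treatment (10 concentrations, maximum 1 μM or 10 μM) gave mean IC50 values. Cells were 50,000 per well of H96, a BCL2-G101V knock-in single clone derived from RS4;11 by Cas9 editing.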
(In general: Cellular ATP, detected with luciferase, serves as a proxy for viable cell number.)

Experiment [5] deals with Recombinant human Bcl-2 protein (Homo sapiens (Human), UniProt P10415). Kind of experiment: Bcl-2 TR-FRET Assay. The format is binding. In short, it runs like this:
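TR-FRET read (337 nm excitation, 520/490 nm emission) after 1 h with 0.5 nM FITC-labeled Bak peptide and Tb-cryptate anti-6His antibody. Bcl-2 at 0.05 nM had been pre-incubated 0.5 h with compound. IC50 fitted by four-parameter logistic equation.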

Experiment [6] relates to RS4;11 (BCL-2 dependent acute lymphoblastic leukemia cell line). Put plainly: RS4;11 Cell Proliferation Assay. It is filed as cell-based. The settings on record: Homo sapiens, RS4-11, RS4;11 cells, read-out: Cellular proliferation assay (IC50, nM) RS4. In short, it runs like this:
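Viability measured via CellTiter-Glo luminescence after a 48 h, 37 °C exposure to compounds (10 points, highest 1 μM). Seeding was 50,000 RS4;11 cells per well in 10% FBS RPMI-1640; IC50 given as mean.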

Setting [7] is: Bcl-2 wild type, TR-FRET, read-out: Biochemical assay (IC50, nM) Bcl-2 WT.
Setting [8] is: wild type Bcl-2, unit inferred, read-out: Bcl-2 WT.

Broadly, the pIC50 is the IC50 on a negative log10 scale, so that one unit is a factor of ten.

For the compound `CC(C)c1ccccc1C1CN(Cc2ccc3c(c2)OCCO3)CCN1C1CC2(CCN(c3ccc(C(=O)NS(=O)(=O)c4ccc(NC[C@H]5CC[C@](C)(O)CC5)c([N+](=O)[O-])c4)c(Oc4cnc5[nH]ccc5c4)c3)CC2)C1` (stereo partly drawn) [Example 78, 2-((1H-pyrrolo[2,3-b]pyridin-5-yl)oxy)-4-(2-(4-((2,3-dihydrobenzo[b] [1,4]dioxin-6-yl)methyl)-2-(2-isopropylphenyl)piperazin-1-yl)-7-azaspiro[3.5]nonan-7-yl)-N-((4-((((1r,4r)-4-hydroxy-4-methylcyclohexyl)methyl)amino)-3-nitrophenyl)sulfonyl)benzamide], the pIC50 in experiment [1] was 9.21. For the same compound, the “Ratio of Bcl-2 D103Y/Bcl-2 WT” value in experiment [1] came out at 2.9. Moreover, the “Ratio of Bcl-2 G101V/WT” value in experiment [2] was 4.6. Further, the IC50 in experiment [3] amounted to 0.98 nM; in experiment [4], 2.6 nM; in experiment [5] (setting [7]) it was 0.21 nM; in experiment [5] (setting [8]) it was 0.21 nM; in experiment [6] it was 0.42 nM.

Regarding `CC(C)c1ccccc1C1CN(Cc2cccc3sccc23)CCN1C1CC2(CCN(c3ccc(C(=O)NS(=O)(=O)c4ccc(NC[C@H]5CC[C@](C)(O)CC5)c([N+](=O)[O-])c4)c(Oc4cnc5[nH]ccc5c4)c3)CC2)C1` (stereo partly drawn) [Example 59, 2-((1H-pyrrolo[2,3-b]pyridin-5-yl)oxy)-4-(2-(4-(benzo[b]thiophen-4-ylmethyl)-2-(2-isopropylphenyl)piperazin-1-yl)-7-azaspiro[3.5]nonan-7-yl)-N-((4-((((1r,4r)-4-hydroxy-4-methylcyclohexyl)methyl)amino)-3-nitrophenyl)sulfonyl)benzamide], in experiment [1], the pIC50 was 8.49. Moreover, the “ratio of Bcl-2 D103Y/Bcl-2 wt, compared with F91b in WO2019210828” value in experiment [1] (comparison in words) is recorded as “significantly lower”. Moreover, the “Ratio of Bcl-2 D103Y/Bcl-2 WT” value in experiment [1] is on record as 4.4. In experiment [2], the “Ratio of Bcl-2 G101V/WT” value is reported as 4.1. Also, the IC50 in experiment [3] was 3 nM; in experiment [4], 10.4 nM; in experiment [5] (setting [7]) it was 0.73 nM; in experiment [5] (setting [8]), 0.73 nM; in experiment [6], 0.8 nM.

Turning to `COc1cc(CN2CCN(C3CC4(C3)CN(c3ccc(C(=O)NS(=O)(=O)c5ccc(NC[C@H]6CC[C@](C)(O)CC6)c([N+](=O)[O-])c5)c(Oc5cnc6[nH]cc(F)c6c5)c3)C4)[C@H](c3ccccc3C(C)C)C2)ccc1C1COC1` [Example 345, 2-((3-fluoro-1H-pyrrolo[2,3-b]pyridin-5-yl)oxy)-N-((4-((((1r,4r)-4-hydroxy-4-methylcyclohexyl)methyl)amino)-3-nitrophenyl)sulfonyl)-4-(6-((R)-2-(2-isopropylphenyl)-4-(3-methoxy-4-(oxetan-3-yl)benzyl)piperazin-1-yl)-2-azaspiro[3.3]heptan-2-yl) benzamide], in experiment [1], the pIC50 was 9.89. In addition, the “Ratio of Bcl-2 D103Y/Bcl-2 WT” value in experiment [1] worked out at 0.8. Further, the “Ratio of Bcl-2 G101V/WT” value in experiment [2] came to 2.4. The IC50 in experiment [3] came out at 0.38 nM; in experiment [4] it was 0.24 nM; in experiment [5] (setting [7]) it was 0.16 nM; in experiment [5] (setting [8]), 0.16 nM; in experiment [6] it was 0.14 nM.

With `COc1cc(CN2CCN(C3CC4(CCN(c5ccc(C(=O)NS(=O)(=O)c6ccc(NC[C@H]7CC[C@](C)(O)CC7)c([N+](=O)[O-])c6)c(Oc6cnc7[nH]ccc7c6)c5)CC4)C3)C(c3ccccc3C(C)C)C2)cnc1OC` (stereo partly drawn) [Example 176, 2-((1H-pyrrolo[2,3-b]pyridin-5-yl)oxy)-4-(2-(4-((5,6-dimethoxypyridin-3-yl)methyl)-2-(2-isopropylphenyl)piperazin-1-yl)-7-azaspiro[3.5]nonan-7-yl)-N-((4-((((1r,4r)-4-hydroxy-4-methylcyclohexyl)methyl)amino)-3-nitrophenyl)sulfonyl)benzamide], the pIC50 in experiment [1] is 10.21. For the same compound, the “Ratio of Bcl-2 D103Y/Bcl-2 WT” value in experiment [1] came out at 1.7. In addition, the “Ratio of Bcl-2 G101V/WT” value in experiment [2] is listed as 4.3. In addition, the IC50 in experiment [3] turned out to be 0.15 nM; in experiment [4], 1 nM; in experiment [5] (setting [7]), 0.035 nM; in experiment [5] (setting [8]), 0.035 nM; in experiment [6], 0.39 nM.

Turning to `COc1cc(CN2CCN(C3CC4(CCN(c5ccc(C(=O)NS(=O)(=O)c6ccc(NC[C@H]7CC[C@](C)(O)CC7)c([N+](=O)[O-])c6)c(Oc6cnc7[nH]ccc7c6)c5)CC4)C3)[C@H](c3ccccc3C(C)C)C2)cc2c1OCCC2` [Example 302, 2-((1H-pyrrolo[2,3-b]pyridin-5-yl)oxy)-N-((4-((((1r,4r)-4-hydroxy-4-methylcyclohexyl)methyl)amino)-3-nitrophenyl)sulfonyl)-4-(2-((R)-2-(2-isopropylphenyl)-4-((8-methoxychroman-6-yl)methyl)piperazin-1-yl)-7-azaspiro[3.5]nonan-7-yl)benzamide], the pIC50 in experiment [1] is 10.16. The “Ratio of Bcl-2 D103Y/Bcl-2 WT” value in experiment [1] turned out to be 1.0. In experiment [2], the “Ratio of Bcl-2 G101V/WT” value is on record as 2.8. The IC50 is 0.2 nM in experiment [3]; 0.79 nM in experiment [4]; 0.071 nM in experiment [5] (setting [7]); 0.071 nM in experiment [5] (setting [8]); 0.31 nM in experiment [6].

As for `COc1cc(CN2CCN(C3CC4(C3)CN(c3ccc(C(=O)NS(=O)(=O)c5ccc(NC[C@H]6CC[C@](C)(O)CC6)c([N+](=O)[O-])c5)c(Oc5cnc6[nH]cc(F)c6c5)c3)C4)[C@H](c3ccccc3C(C)C)C2)cc2c1OCCCC2` [Example 347, 2-((3-fluoro-1H-pyrrolo[2,3-b]pyridin-5-yl)oxy)-N-((4-((((1r,4r)-4-hydroxy-4-methylcyclohexyl)methyl)amino)-3-nitrophenyl)sulfonyl)-4-(6-((R)-2-(2-isopropylphenyl)-4-((9-methoxy-2,3,4,5-tetrahydrobenzo[b]oxepin-7-yl)methyl)piperazin-1-yl)-2-azaspiro[3.3]heptan-2-yl) benzamide], the pIC50 in experiment [1] is 9.55. Moreover, in experiment [1], the “Ratio of Bcl-2 D103Y/Bcl-2 WT” value is 1.4. Moreover, the “Ratio of Bcl-2 G101V/WT” value in experiment [2] was found to be 2.3. Further, the IC50 in experiment [3] came to 0.47 nM; in experiment [4] it was 0.34 nM; in experiment [5] (setting [7]) it was 0.2 nM; in experiment [5] (setting [8]), 0.2 nM; in experiment [6], 0.13 nM.

As for `COc1cc(CN2CCN(C3CC4(C3)CN(c3ccc(C(=O)NS(=O)(=O)c5ccc(NC[C@H]6CC[C@](C)(O)CC6)c([N+](=O)[O-])c5)c(Oc5cnc6[nH]cc(F)c6c5)c3)C4)[C@H](c3ccccc3C(C)C)C2)cc2c1OC(C)(C)CC2` [Example 337, 2-((3-fluoro-1H-pyrrolo[2,3-b]pyridin-5-yl)oxy)-N-((4-((((1r,4r)-4-hydroxy-4-methylcyclohexyl)methyl)amino)-3-nitrophenyl)sulfonyl)-4-(6-((R)-2-(2-isopropylphenyl)-4-((8-methoxy-2,2-dimethylchroman-6-yl)methyl)piperazin-1-yl)-2-azaspiro[3.3]heptan-2-yl)benzamide], the pIC50 in experiment [1] is 9.41. For the same compound, in experiment [1], the “Ratio of Bcl-2 D103Y/Bcl-2 WT” value was found to be 3.2. In addition, the “Ratio of Bcl-2 G101V/WT” value in experiment [2] was determined as 3. Further, the IC50 in experiment [3] worked out at 0.37 nM; in experiment [4] it was 0.63 nM; in experiment [5] (setting [7]) it was 0.12 nM; in experiment [5] (setting [8]) it was 0.12 nM; in experiment [6], 0.18 nM.
